Measured values: ChEMBL document CHEMBL1201862, “PubChem BioAssay data set” (2004)
Active and inactive are the calls of the source.

Legend:
Caspase-8 = Caspase-8 (Homo sapiens, UniProt Q14790); test: inhibitors of purified CASP8 protease – biochemical, Z-IETD-R110 fluorescence, cherry-picked samples, selectivity assay for caspase-6 inhibitor project, dose response (AID 743294)
Genome polyprotein = Genome polyprotein (dengue virus type 2, UniProt P29990); test: flavivirus cap methylation enzyme inhibition – biochemical, confirmation dose response, primary screen (AID 588689); format: functional
Chain of Genome polyprotein (P29990 2492-3391 limits assumed): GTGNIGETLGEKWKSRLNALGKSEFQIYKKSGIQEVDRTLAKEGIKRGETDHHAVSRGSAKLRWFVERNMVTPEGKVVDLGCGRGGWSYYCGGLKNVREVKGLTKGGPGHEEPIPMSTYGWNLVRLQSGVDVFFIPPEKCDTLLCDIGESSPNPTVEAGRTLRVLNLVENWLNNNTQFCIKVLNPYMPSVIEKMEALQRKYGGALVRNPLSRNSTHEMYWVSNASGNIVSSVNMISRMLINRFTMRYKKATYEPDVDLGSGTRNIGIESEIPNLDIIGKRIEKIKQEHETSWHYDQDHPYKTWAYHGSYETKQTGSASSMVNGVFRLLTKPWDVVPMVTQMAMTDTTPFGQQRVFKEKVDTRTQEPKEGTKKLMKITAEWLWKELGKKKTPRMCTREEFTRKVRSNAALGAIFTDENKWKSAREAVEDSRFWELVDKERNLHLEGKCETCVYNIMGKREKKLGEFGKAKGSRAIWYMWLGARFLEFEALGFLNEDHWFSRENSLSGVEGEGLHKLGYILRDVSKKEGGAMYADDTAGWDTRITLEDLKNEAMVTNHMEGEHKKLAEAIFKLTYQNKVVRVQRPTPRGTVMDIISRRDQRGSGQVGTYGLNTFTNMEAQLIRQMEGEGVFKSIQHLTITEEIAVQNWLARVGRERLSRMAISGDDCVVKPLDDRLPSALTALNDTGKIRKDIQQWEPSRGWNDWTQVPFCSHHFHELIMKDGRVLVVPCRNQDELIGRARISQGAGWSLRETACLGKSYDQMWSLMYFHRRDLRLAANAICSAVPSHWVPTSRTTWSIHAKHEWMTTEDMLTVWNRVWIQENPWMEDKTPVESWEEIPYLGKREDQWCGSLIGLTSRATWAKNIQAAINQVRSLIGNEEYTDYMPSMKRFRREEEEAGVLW

Caspase-6 = Caspase-6 (Homo sapiens, UniProt P55212); test: inhibition of CASP6 peptide cleavage – biochemical, VEID-R110 fluorescence, cherry-pick, dose response (AID 720632)
Chain of Caspase-6 (P55212 24-179 limits assumed): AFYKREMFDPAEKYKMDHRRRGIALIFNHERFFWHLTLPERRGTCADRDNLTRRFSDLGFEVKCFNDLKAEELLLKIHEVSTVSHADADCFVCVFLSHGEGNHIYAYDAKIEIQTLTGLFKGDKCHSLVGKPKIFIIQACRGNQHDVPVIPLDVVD
Chain of Caspase-6 (P55212 194-293 limits assumed): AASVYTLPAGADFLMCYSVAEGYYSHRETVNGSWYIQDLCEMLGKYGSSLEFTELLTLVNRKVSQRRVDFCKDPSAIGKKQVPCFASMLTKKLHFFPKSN

[1] = target: T1, Endoribonuclease toxin MazF (Escherichia coli K-12, UniProt P0AE70); test: activation of MazEF endoribonuclease cleavage – biochemical, fluorescence, single-stranded RNA substrate, uHTS hits, dose response (AID 588481); format: functional
T1 sequence (P0AE70 whole entry): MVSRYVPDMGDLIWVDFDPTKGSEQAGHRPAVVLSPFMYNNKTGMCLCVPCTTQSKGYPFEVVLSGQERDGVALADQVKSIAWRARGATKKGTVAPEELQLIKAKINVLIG

ORF 73 = ORF 73 (Human herpesvirus 8, UniProt O40947); test: KSHV LANA DNA-binding disruption – biochemical, fluorescence polarization, cherry-picked samples, dose response (AID 504725); design: species or system Human gammaherpesvirus 8;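 note: fluorescence polarization of a labeled DNA duplex reporting LANA DNA binding; potency is for inhibitors that block LANA binding to the DNA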
Chain of ORF 73 (O40947 whole entry): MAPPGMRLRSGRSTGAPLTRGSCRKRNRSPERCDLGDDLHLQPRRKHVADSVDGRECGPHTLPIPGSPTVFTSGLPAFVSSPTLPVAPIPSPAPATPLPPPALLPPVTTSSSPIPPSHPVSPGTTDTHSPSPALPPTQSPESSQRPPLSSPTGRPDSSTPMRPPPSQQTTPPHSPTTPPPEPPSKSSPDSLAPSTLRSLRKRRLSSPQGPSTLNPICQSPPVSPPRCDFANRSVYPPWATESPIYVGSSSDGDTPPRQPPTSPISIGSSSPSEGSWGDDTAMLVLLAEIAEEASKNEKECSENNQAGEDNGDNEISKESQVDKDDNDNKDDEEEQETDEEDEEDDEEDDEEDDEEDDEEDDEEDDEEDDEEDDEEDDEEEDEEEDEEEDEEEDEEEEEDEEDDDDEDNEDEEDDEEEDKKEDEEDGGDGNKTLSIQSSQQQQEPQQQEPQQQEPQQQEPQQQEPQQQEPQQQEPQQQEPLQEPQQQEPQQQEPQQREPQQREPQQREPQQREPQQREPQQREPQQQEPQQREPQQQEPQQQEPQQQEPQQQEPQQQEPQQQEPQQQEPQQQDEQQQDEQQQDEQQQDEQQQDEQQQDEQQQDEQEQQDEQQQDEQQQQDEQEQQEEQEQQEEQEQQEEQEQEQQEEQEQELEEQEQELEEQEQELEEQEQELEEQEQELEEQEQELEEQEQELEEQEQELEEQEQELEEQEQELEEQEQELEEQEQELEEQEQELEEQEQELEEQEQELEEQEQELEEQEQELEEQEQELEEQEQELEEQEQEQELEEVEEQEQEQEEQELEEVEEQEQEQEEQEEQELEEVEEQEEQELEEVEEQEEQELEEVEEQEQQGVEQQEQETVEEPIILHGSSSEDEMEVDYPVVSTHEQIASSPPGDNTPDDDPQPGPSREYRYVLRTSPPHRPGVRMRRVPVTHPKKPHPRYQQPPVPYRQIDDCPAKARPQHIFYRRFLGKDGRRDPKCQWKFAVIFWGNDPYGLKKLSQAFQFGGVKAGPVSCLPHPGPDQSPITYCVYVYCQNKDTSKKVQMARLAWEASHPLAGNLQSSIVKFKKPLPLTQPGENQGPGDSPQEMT

Albumin = Albumin (Bos taurus, UniProt P02769); test: Counterscreen for inhibitors of T-cell receptor (TCR)-CD3 interaction: Fluorescence-based biochemical high throughput dose response assay to identify inhibitors of T-cell receptor (TCR)-CD3 interaction using a TAMRA-labeled BSA probe.; format: functional
Chain of Albumin (P02769 whole entry): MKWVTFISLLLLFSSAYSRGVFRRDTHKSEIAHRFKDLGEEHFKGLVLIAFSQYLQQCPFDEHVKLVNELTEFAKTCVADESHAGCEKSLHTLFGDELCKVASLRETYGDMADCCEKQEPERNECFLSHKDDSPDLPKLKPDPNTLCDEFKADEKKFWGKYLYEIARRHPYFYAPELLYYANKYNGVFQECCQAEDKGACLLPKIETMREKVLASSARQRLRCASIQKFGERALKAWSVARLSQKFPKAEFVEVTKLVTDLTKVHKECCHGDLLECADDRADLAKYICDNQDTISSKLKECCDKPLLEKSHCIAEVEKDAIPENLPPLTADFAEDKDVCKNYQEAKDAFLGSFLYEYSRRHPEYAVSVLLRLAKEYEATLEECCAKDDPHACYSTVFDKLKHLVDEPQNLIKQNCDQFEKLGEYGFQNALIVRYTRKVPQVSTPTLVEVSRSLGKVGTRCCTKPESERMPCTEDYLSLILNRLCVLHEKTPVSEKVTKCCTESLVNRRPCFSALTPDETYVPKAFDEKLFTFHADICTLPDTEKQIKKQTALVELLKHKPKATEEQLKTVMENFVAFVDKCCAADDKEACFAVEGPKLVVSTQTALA

[2] = target: Dual specificity tyrosine-phosphorylation-regulated kinase 1A (Rattus norvegicus, UniProt Q63470); format: biochemical, Homo sapiens
[3] = target: Polyadenylate-binding protein 1 (Homo sapiens, UniProt P11940); test: MLLE binding blockers, Cy5 peptide tracer – biochemical, fluorescence polarization, Cy5-PAM2 peptide, secondary, miRNA deadenylation inhibitor project, dose response (AID 602260); format: functional; conditions: read-out: IC50_Mean
Chain of Polyadenylate-binding protein 1 (P11940 whole entry): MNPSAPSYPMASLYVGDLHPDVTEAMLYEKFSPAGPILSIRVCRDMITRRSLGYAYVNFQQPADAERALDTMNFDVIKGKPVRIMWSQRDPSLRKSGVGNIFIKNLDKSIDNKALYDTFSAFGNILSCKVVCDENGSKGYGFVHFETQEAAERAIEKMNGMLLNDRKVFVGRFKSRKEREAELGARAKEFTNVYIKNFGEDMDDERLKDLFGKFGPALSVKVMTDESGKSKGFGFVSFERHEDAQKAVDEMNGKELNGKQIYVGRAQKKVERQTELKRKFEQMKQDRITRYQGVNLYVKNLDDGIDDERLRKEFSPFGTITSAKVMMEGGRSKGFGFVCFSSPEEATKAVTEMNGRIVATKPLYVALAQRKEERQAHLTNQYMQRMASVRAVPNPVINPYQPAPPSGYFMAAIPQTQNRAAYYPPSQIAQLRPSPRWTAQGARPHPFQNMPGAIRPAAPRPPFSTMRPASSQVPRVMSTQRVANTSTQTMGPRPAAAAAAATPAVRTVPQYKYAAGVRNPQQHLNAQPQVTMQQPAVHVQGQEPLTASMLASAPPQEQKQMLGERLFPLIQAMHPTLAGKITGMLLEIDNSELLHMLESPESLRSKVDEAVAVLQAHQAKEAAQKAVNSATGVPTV

[4] = target: Bifunctional protein GlmU (Mycobacterium tuberculosis, UniProt P9WMN3); test: Inhibitors of Mycobacterial Glucosamine-1-phosphate acetyl transferase (GlmU). Secondary screen.; design: species or system Mycobacterium tuberculosis H37Rv
Chain of Bifunctional protein GlmU (P9WMN3 whole entry): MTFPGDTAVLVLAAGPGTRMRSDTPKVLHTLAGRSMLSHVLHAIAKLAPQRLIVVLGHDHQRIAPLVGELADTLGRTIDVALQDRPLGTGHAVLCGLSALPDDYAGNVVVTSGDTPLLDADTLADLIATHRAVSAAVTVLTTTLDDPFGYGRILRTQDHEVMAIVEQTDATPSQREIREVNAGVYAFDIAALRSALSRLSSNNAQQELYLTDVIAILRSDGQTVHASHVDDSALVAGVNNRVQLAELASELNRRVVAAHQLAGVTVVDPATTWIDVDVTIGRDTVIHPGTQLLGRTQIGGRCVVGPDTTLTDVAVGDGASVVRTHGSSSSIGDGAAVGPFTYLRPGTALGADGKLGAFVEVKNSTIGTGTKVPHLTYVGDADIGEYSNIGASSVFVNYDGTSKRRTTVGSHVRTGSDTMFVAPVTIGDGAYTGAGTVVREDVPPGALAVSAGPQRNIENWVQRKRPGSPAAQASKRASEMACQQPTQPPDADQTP

[5] = target: Induced myeloid leukemia cell differentiation protein Mcl-1 (Homo sapiens, UniProt Q07820); format: functional
[6] = target: T2, Zinc finger protein mex-5 (Caenorhabditis elegans, UniProt Q9XUB2); test: potency of MEX-5 RNA-binding blockers – biochemical, C. elegans, fluorescence polarization, dose response (AID 1960)
T2 sequence (Q9XUB2 whole entry): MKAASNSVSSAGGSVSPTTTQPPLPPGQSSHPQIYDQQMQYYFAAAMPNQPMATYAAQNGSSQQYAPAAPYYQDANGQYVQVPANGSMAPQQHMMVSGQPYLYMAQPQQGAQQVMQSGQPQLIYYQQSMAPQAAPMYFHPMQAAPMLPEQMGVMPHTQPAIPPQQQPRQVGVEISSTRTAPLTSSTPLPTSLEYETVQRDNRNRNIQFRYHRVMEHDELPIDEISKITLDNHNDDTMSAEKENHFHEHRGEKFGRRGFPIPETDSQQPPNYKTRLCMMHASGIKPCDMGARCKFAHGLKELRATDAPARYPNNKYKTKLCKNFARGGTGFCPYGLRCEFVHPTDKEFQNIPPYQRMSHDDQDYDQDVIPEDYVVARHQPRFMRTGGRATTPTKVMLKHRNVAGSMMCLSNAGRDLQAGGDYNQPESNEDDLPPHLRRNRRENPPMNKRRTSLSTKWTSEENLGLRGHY

[7] = target: Dual specificity protein phosphatase 3 (Homo sapiens, UniProt P51452); test: VHR1 phosphatase inhibitors, primary screen, biochemical, absorbance, uHTS (AID 1654)
Chain of Dual specificity protein phosphatase 3 (P51452 whole entry): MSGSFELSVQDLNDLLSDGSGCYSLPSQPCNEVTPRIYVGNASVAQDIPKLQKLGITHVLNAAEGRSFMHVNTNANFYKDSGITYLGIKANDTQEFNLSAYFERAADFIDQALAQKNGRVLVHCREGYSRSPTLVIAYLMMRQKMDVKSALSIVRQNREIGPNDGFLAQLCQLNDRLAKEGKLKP

Cytochrome P450 3A4 = Cytochrome P450 3A4 (Homo sapiens, UniProt P08684); conditions: Potency;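 note: confirmatory qHTS run detecting inhibitors and substrates of CYP3A4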
Chain of Cytochrome P450 3A4 (P08684 whole entry): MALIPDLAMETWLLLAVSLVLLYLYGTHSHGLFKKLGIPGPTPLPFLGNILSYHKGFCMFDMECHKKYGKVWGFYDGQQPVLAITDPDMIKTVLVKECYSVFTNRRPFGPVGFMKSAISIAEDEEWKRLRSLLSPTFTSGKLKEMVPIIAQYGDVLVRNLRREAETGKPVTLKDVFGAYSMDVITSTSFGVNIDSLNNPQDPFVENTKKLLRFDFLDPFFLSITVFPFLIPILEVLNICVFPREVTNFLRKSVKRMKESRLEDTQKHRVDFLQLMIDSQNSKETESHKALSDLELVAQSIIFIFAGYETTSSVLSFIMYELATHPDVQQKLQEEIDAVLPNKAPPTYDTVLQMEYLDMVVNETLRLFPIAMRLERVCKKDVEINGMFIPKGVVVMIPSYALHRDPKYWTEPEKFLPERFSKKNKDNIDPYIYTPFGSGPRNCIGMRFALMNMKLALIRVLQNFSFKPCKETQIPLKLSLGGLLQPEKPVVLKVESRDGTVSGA

Chain of Caspase-8 (Q14790 217-374 limits assumed): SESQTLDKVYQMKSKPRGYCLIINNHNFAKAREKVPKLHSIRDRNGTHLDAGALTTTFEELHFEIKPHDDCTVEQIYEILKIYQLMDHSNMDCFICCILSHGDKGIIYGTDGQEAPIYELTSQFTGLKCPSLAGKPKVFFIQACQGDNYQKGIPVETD
Chain of Caspase-8 (Q14790 385-479 limits assumed): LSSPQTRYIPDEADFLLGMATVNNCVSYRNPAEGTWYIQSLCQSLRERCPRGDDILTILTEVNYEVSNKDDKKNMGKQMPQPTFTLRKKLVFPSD

In the case of `O=c1c(O)cccc2cc(O)c(O)c(O)c12` [PURPUROGALLIN], the AC50 (Caspase-8) is reported as > 70 µM (inactive), the IC50 (Genome polyprotein) is reported as 12.2 µM (active) and the AC50 (Caspase-6) is reported as 80.4 nM (active). For the same compound, the EC50 [1] was 80.3 µM (inactive), the AC50 (ORF 73) was 25.9 µM (active) and the IC50 (Albumin) was > 94.1 µM (inactive). The AC50 [2] was 1.61 µM (active), the IC50 [3] was > 66 µM (inactive) and the IC50 [4] was 21.5 µM (active). The IC50 [5] was > 54 µM (active), the EC50 [6] was 152 nM (active) and the IC50 [7] was < 980 nM (inactive). For the same compound, the AC50 (Cytochrome P450 3A4) was 31.6 µM (inconclusive).
